We go through five molecules from patent US20250059183A1, “PYRIDINE[4,3-D]PYRIMIDINE COMPOUND AS TLR7/8 AGONIST” (SHANGHAI VISONPHARMA CO., LTD., priority 2021, published 2025).

The target in test [1] is T1, human TLR8 (Homo sapiens, UniProt Q9NR97).
T1 construct: host or cells: HEK-Blue hTLR8 (HEK293-derived reporter cells)
T1 sequence (Q9NR97 27-1041): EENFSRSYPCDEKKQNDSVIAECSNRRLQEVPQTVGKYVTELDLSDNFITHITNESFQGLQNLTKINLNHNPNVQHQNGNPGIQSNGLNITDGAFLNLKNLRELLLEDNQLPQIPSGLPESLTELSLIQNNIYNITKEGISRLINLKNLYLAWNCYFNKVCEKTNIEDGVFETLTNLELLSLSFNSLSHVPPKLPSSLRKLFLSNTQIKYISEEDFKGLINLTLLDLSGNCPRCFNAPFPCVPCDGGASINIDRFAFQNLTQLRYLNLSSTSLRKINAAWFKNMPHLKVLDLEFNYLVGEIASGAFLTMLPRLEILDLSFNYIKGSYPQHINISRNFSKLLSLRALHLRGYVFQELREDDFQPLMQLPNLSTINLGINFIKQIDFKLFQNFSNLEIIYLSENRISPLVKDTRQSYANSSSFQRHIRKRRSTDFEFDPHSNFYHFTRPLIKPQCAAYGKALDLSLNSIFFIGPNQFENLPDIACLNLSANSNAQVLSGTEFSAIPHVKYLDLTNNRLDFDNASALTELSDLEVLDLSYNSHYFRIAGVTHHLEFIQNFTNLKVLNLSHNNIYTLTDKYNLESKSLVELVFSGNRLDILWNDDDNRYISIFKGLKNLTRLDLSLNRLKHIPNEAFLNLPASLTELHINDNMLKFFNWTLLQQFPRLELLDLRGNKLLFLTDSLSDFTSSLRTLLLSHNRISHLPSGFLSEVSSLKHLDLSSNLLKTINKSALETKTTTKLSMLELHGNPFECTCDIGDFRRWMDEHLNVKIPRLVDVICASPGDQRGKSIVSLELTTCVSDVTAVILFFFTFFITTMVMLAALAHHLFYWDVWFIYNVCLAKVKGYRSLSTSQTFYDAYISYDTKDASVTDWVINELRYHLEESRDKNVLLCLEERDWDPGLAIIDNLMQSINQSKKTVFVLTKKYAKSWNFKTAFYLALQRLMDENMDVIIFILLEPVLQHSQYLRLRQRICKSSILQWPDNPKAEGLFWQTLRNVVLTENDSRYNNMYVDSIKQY
The experiment in a line: HEK-Blue hTLR8 SEAP reporter gene agonist assay. It is filed as cell-based. The following applies: HEK-Blue hTLR8 cells, 16 to 22 hours incubation. In short, it runs like this: (§1)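 HEK-Blue cells stably expressing human TLR7 or TLR8 carry a SEAP reporter driven by a minimal IFN-β promoter fused to 5×NF-κB and AP-1 sites. Compounds at […] final, 16 to 22 h. SEAP in the medium measured with Quanti-blue at OD650, and EC50 derived.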

The target of test [2] is T2, human TLR7 (Homo sapiens, UniProt Q9NYK1).
T2 construct: host or cells: HEK-Blue hTLR7 (HEK293-derived reporter cells)
T2 sequence (Q9NYK1 27-1049): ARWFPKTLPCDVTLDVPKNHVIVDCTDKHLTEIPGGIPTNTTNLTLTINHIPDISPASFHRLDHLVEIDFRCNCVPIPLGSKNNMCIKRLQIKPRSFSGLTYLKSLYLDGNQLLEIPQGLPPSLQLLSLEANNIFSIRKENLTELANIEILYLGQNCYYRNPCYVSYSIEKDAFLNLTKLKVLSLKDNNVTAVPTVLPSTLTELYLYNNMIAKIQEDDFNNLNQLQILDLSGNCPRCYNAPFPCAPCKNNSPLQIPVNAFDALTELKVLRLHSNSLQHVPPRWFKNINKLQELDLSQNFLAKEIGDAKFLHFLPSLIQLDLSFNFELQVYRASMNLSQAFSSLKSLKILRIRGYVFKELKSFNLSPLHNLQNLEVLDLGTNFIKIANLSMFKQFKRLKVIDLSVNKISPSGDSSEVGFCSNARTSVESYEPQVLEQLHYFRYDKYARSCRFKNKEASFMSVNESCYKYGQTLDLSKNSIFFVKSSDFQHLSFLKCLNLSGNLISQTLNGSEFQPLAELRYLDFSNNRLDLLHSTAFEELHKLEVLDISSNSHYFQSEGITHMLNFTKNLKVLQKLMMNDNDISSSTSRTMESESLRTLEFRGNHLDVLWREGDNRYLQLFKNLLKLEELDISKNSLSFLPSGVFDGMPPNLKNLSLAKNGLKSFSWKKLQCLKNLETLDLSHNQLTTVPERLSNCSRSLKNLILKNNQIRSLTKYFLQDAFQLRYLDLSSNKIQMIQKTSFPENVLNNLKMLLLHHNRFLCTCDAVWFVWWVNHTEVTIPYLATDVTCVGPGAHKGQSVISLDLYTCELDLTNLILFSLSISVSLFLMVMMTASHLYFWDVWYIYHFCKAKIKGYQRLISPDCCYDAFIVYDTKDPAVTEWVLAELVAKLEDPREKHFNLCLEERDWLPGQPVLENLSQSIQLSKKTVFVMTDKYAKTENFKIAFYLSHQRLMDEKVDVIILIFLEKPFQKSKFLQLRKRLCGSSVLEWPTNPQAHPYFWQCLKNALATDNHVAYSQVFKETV
The experiment in a line: HEK-Blue hTLR7 SEAP reporter gene agonist assay. The test is classed as cell-based. The following applies: HEK-Blue hTLR7 cells, 16 to 22 hours incubation. The gist of the method:
as §1

By EC50 is commonly meant the concentration giving half of the maximal effect.

`CCC[C@@H](CO)Nc1nc(N)nc2ccn(Cc3ccc(C(=O)N4CCN(C)CC4)cc3OC)c(=O)c12` [Compound I-212, (S)-2-amino-4-((1-hydroxypentan-2-yl)amino)-6-(2-methoxy-4-(4-methylpiperazine-1-carbonyl)benzyl)pyrido[4,3-d]pyrimidin-5(6H)-one]: the results for the EC50 in test [1] and in test [2] were 4 nM and 60 nM, respectively.
The like results for `CCC[C@@H](C)Nc1nc(N)nc2ccn(Cc3ccc(CN(CCO)CCO)cc3)c(=O)c12` [Compound I-141, (R)-2-amino-6-(4-((bis(2-hydroxyethyl)amino)methyl)benzyl)-4-(pentan-2-ylamino)pyrido[4,3-d]pyrimidin-5(6H)-one] were, in that order, 20 nM and 50 nM.
For `CCC[C@@H](C)Nc1nc(N)nc2ccn(Cc3ccc(C(=O)N4C5CNCC4C5)cc3)c(=O)c12` [Compound I-161, 6-(4-(3,6-diazabicyclo[3.1.1]heptane-6-carbonyl)benzyl)-2-amino-4-(((R)-pentan-2-yl)amino)pyrido[4,3-d]pyrimidin-5(6H)-one], the EC50 in test [1] turned out to be 40 nM; in test [2], 110 nM.
As to `CCC[C@@H](C)Nc1nc(N)nc2ccn(Cc3ccc(CN(CCO)CCO)cc3OC)c(=O)c12` [Compound I-166, (R)-2-amino-6-(4-((bis(2-hydroxyethyl)amino)methyl)-2-methoxybenzyl)-4-(pentan-2-ylamino)pyrido[4,3-d]pyrimidin-5(6H)-one], the EC50 in test [1] and in test [2] was 30 nM in each case.
Consider `CCC[C@@H](C)Nc1nc(N)nc2ccn(Cc3ccc(C(=O)N4CC5CC(C4)N5)cc3OC)c(=O)c12` [Compound I-181, 6-(4-(3,6-diazabicyclo[3.1.1]heptane-3-carbonyl)-2-methoxybenzyl)-2-amino-4-(((R)-pentan-2-yl)amino)pyrido[4,3-d]pyrimidin-5(6H)-one], for which the EC50 came to 7 nM in test [1] and 30 nM in test [2].
